For 4 compounds, Ki results are on record in ChEMBL document CHEMBL1159090 (Bioorg Med Chem Lett, 2010).

One experiment has as its target Histamine H1 receptor (Homo sapiens, UniProt P35367). Nature of the experiment: Displacement of [3H]Pyrilamine from human cloned histamine H1 receptor. On the technique in general: Displacement assays read how much labelled ligand stays bound in the presence of the test substance.
In experiment [1] the target is 5-hydroxytryptamine receptor 2A (Homo sapiens, UniProt P28223). Nature of the experiment: Displacement of [3H]Ketanserin from human cloned 5HT2A receptor.
Sequence of 5-hydroxytryptamine receptor 2A (P28223 whole entry): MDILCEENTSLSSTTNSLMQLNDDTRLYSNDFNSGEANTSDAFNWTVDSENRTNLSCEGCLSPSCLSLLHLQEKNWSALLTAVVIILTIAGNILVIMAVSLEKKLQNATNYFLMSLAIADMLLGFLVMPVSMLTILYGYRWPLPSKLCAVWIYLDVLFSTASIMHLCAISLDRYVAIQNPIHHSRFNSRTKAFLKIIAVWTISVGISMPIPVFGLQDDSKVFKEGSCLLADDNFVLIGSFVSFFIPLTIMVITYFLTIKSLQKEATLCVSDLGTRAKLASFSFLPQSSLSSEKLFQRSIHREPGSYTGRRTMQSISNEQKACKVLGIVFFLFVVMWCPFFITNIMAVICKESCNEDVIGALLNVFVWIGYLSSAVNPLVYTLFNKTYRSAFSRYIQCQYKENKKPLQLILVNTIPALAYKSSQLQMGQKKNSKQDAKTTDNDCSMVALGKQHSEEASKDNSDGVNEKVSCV

Sequence of Histamine H1 receptor (P35367 whole entry): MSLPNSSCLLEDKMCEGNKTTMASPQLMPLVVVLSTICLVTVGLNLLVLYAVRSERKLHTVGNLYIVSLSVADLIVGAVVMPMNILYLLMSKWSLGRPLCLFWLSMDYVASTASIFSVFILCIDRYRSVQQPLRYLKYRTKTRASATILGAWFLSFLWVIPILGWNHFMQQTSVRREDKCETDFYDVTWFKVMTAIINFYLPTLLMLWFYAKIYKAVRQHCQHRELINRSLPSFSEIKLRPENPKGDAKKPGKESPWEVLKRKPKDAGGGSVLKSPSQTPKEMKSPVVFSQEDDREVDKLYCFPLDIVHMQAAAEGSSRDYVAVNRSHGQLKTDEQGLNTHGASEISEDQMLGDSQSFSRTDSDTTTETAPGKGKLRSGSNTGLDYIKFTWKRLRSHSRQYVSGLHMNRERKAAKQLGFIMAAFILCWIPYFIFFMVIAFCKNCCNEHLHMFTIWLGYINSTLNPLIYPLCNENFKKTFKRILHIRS

For the compound `c1ccc(CCNCC2c3ccccc3Cc3ccccc32)cc1`, the figures for the Ki (on Histamine H1 receptor; in experiment [1]) were 0.242 µM and 0.4 µM, respectively.

As to `c1ccc(CCCCNCC2c3ccccc3Cc3ccccc32)cc1`, the inhibition constant (Ki) (commonly the dissociation constant of the complex between target and ligand, obtained from inhibition or displacement) on Histamine H1 receptor came out at 0.964 µM; in experiment [1], 0.365 µM.

For `COc1ccc2c3c(ccc2c1)Cc1ccccc1C3CN` (stereo not drawn), the Ki was 2.64 µM at Histamine H1 receptor and 0.021 µM in experiment [1].

On to `c1ccc(CCCNCC2c3ccccc3Cc3ccccc32)cc1`, for which the figures for the Ki (at Histamine H1 receptor; in experiment [1]) were 0.725 µM and 0.223 µM, respectively.
